Reference: patent US20080038288A1, “Prevention of damage in hippocampus of fetus/newborn infant due to maternal gestational hypertension” (priority 2006, published 2008)
Marks after values point to notes of the source that are not given here.

Columns and labels:
[1] = system: hippocampus CA1, CA3 and DG neurons; test: Morphometric analysis: hippocampal cell layer thickness and neuron body count, neutral red staining; format: in vivo, rat; settings: P30 rats, mean ± sd
Description: (§1) Animal groups and administration of medication. Gestational hypertension (GH) was produced in rats using the L-NAME (a type of NOS inhibitor) method of Yallampalli et al. [Yallampalli et al., Am J Obstet Gynecol., 1993, 169:1316-1320]. Forty mature (11-12 weeks old) SD female rats weighing 200-230 g; 10 mature (13-15 weeks old) SD male rats weighing 250-300 g. At a ratio of […], the rats were paired in cages, on the second day the female rats' vaginal secretions were observed (smear technique) and those containing sperm were considered to be at day 0 of pregnancy (E0). […] L-NAME was given by two injections at a total dose of 60 mg/kg/day. Two hours after each injection, the pregnant rats received gastric feeding of distilled water, L-arginine or GLSs. The GLSs were provided by Kindway International Ltd./Holistol International Ltd., license number GANSPSP04040104. The L-arginine was purchased from the Amresco Company.
Preparation of histological materials. Some of the pregnant rats were anesthetized at E21 day with an i.p. injection of 1% pentobarbital (35 mg/kg). The embryos were removed from the uterus. Some were placed in a freezer dish and the hippocampal tissue was removed from the brains of the embryos, placed in an Eppendorf tube and stored at −80° C. to await testing. The rest of the embryonic brains were fixed in a 4% paraformaldehyde solution. Another group of pregnant rats went into normal labor, and the young rats were fed and raised until 30 days of […] (P30). Some of the young rats received the preceding pentobarbital anesthesia and their hippocampal tissue was placed in a freezer dish and stored to await testing. The rest of the rats in the P30 group received pentobarbital anesthesia as above, their chests were opened and an aortic cannula inserted through the left ventricle. One group of young rats was first quickly perfused with normal saline and then 4% paraformaldehyde 0.1 mol/L phosphate buffer (PB) (pH 7.4). Then the fixed cerebral corona was continuously frozen and sectioned at a thickness of 15 μm. Sectioning started at the alveus of the hippocampus, one section every 300 μm, and six sections were taken from each brain, for a collection of six sets of sections.
Morphometric analysis. Various cell layer thicknesses from various areas of the hippocampus were measured and a neuron body count obtained. Under a low-magnification microscope, two visual fields were randomly selected from the CA1, CA3 and DG regions. Under a high-magnification microscope (200×), the cell layer thickness was measured and the number of nucleated neuron bodies counted. The cell layer thicknesses or body numbers are the averages of two visual fields.

[2] = system: E21 day rat embryo hippocampal cells; test: Flow cytometry of hippocampal cell cycle in E21 embryos of L-NAME gestational hypertension rats; format: in vivo; settings: dam given L-NAME 60 mg/kg/day i.p. plus gastric feeding E14-20, mean ± sx
Description: as §1
(§2) Preparation of histological materials. Some of the pregnant rats were anesthetized at E21 day with an i.p. injection of 1% pentobarbital (35 mg/kg). The embryos were removed from the uterus. […]
Hippocampal tissue separated from E21 day rat embryos was placed in a culture dish and sheared into pieces, 0.01 mol/L phosphate buffered saline (PBS) was added and repeatedly triturated, filtered through a 100-mesh screen, and the single-cell suspension obtained was fixed in 75% alcohol at 4° C. to await testing. Before testing, the extracted cell suspension was centrifuged to remove the supernatant, 100 μL RNase (0.1 mg/L) added, placed at 37° C. for 30 min, after rinsing with normal saline, propidium iodine (PI) stain (0.05 mg/L, 0.03% Triton X-100 0.5 mL) was added, placed at 4° C. protected from light to react for 30 min, then measured. In flow cytometry, a 488 nm laser used Cell Fit software to collect 10,000 cells/specimen cell cycle data was analyzed and one-way ANOVA testing performed for statistical processing.

hippocampus microvessels = test: Hippocampal microvessel density, vWF immunohistochemical staining, Weidner counting; format: in vivo, rat; settings: dam given L-NAME plus gastric feeding E14-20, mean ± sd
Description: as §1, §2
Hippocampal microvessel density: The Weidner counting method was used to determine the microvessel standard [Weidner et al., Am J Pathol. […] Under a light microscope (200×), microvessel numbers were counted in five visual fields. […]

[3] = system: hippocampus dentate gyrus proliferating cells; test: BrdU labeling, positive cell counts at hippocampus dentate gyrus of P30 rats born to L-NAME rats; format: in vivo, rat; settings: dam given L-NAME plus gastric feeding E14-20, mean ± sd
Description: as §1
Preparation of histological materials. Some of the pregnant rats were anesthetized at E21 day with an i.p. injection of 1% pentobarbital (35 mg/kg). The embryos were removed from the uterus. Some were placed in a freezer dish and the hippocampal tissue was removed from the brains of the embryos, placed in an Eppendorf tube and stored at −80° C. to await testing. The rest of the embryonic brains were fixed in a 4% paraformaldehyde solution. […]

SMILES: N=C(N)NCCC[C@H](N)C(=O)O [L-arg, L-arginine]
- Hippocampal cell layer thickness CA1 ([1]; CA1 area): 115.23 ± 9.49^m μm
- Neuron body counts CA1 ([1]; CA1 area): 31.80 ± 1.15^n num
- Hippocampal cell layer thickness CA3 ([1]; CA3 area): 90.64 ± 6.18^o μm
- Neuron body counts CA3 ([1]; CA3 area): 23.00 ± 0.83^p num
- Hippocampal cell layer thickness DG ([1]; DG area): 64.87 ± 4.42^q μm
- Percentage of hippocampal cells in G1/G0 phase [2]: 82.74 ± 2.75^h %
- Percentage of hippocampal cells in G2/M phase [2]: 1.44 ± 0.44^i %
- Percentage of hippocampal cells in S phase [2]: 15.34 ± 2.92^g %
- Microvessel density at the hippocampus, E21 (hippocampus microvessels; E21 embryos): 39.80 ± 4.79^e
- Microvessel density at the hippocampus, P30 (hippocampus microvessels; P30 rats): 75.25 ± 3.86^f
- BrdU positive cell counts at hippocampus dentate gyrus [3]: 38.00 ± 1.04^c
